Source: patent US12624044B2, “SMARCA degraders and uses thereof” (Kymera Therapeutics, Inc., priority 2019, dated 2026)

Target: SMARCA2 (Homo sapiens, UniProt P51531)
Experiment: MSD SMARCA2 degradation in NCI-H1299 cell line (24 h)
Assay type: cell-based
Parameters: HC: NCI-H1299 cells treated with DMSO; host or cells: NCI-H1299
Settings: for Dmax: NCI-H1299, NCI-H1299 cells; for DC50: NCI-H1299 cells, read-out: SMARCA2 MSD H1299 degradation 24 h: External Abs-DC50
Description: Example 32. MSD SMARCA2 Degradation in […] Cell Line
Cell Culture: Cells were cultured in exponential growth phase.
Compound Preparation and Treatment: NCI-H1299 cells were seeded into the 96-well plate at 4.0*10^4 cells per 100 ul per well. Incubate the plate in the incubator overnight. The next day, compounds were diluted to designed stock concentration by TECAN, then perform a 3 fold, 9-point dilution via transferring 15 uL compound into 30 μL DMSO using Apricot. 200 nL diluted compound from compound source plate were transferred into the 96-intermediate plate as designated by using Echo550, followed with 100 ul culture medium to make the 2× compound solution. Cell plate were changed with 80 ul of fresh culture medium and 80 ul of 2× compound solution was added into the well to achieve the final designed concentration. Cell plate was then shaken at 720 rpm for 5 min and incubated for 24 hours in the incubator.
Sample Preparation: Media was aspirated from the cultures and the plate was washed with PBS twice. 60 ul of pre-chilled PIPA lysis buffer (Boston BioProducts BP-115D) with protease inhibitor were directly added into the well to lyze the cells for 20 minutes at 4° C. Cell lysates were collected.
MSD Procedure: The MSD plate was coated with 40 ul cell lysate and incubated at 4° C. overnight. The next day, the MSD coated bare plate was washed 3 times with 150 ul 1×TBST per well, blocked with 150 ul of blocking buffer per well, and shaken for 1 hour at RT, 600 rpm. Blocking buffer was 3% Blocker A in TBST. MSD plate was then washed 3 times with 150 ul 1×TBST per well and Primary Detection antibody (Rabbit anti-SMARCA2/BRM antibody, 100 μg/ml, ab223735) was added to a final [conc.]: 0.3 ug/ml, 25 ul/well and shaken for 1 hour at RT, 600 rpm. Antibody was prepared in Antibody Detection buffer (1% Blocker A in 1×TBST). The MSD plate was then washed 3 times with 150 ul 1×TBST per well. Secondary Detection antibody (SULFO-TAG anti-species antibody) was then added to a final [conc.]: 1 ug/ml, 25 ul/well, and shaken for 1 hour at RT, 600 rpm. Antibodies were prepared in Antibody Detection buffer (1% Blocker A in 1×TBST). MSD plate was washed 3 times with 150 ul 1×TBST per well and 2×MSD reading buffer was added, 150 ul per well, and diluted from 4× with water. MSD instrument was then read.
Data Analysis: The percentage of relative level of SMARCA2 level was calculated following equation below.
LC: A2780, SMARCA2 negative cells. HC: NCI-H1299 cells treated with DMSO.
The letter codes for the percentage of SMARCA2 degradation after 24 hours (Dmax %) include: A (>90% degradation), B (>70-90 degradation), C (50-70 degradation), and D (<50% degradation).

Chain of SMARCA2 (P51531 whole entry): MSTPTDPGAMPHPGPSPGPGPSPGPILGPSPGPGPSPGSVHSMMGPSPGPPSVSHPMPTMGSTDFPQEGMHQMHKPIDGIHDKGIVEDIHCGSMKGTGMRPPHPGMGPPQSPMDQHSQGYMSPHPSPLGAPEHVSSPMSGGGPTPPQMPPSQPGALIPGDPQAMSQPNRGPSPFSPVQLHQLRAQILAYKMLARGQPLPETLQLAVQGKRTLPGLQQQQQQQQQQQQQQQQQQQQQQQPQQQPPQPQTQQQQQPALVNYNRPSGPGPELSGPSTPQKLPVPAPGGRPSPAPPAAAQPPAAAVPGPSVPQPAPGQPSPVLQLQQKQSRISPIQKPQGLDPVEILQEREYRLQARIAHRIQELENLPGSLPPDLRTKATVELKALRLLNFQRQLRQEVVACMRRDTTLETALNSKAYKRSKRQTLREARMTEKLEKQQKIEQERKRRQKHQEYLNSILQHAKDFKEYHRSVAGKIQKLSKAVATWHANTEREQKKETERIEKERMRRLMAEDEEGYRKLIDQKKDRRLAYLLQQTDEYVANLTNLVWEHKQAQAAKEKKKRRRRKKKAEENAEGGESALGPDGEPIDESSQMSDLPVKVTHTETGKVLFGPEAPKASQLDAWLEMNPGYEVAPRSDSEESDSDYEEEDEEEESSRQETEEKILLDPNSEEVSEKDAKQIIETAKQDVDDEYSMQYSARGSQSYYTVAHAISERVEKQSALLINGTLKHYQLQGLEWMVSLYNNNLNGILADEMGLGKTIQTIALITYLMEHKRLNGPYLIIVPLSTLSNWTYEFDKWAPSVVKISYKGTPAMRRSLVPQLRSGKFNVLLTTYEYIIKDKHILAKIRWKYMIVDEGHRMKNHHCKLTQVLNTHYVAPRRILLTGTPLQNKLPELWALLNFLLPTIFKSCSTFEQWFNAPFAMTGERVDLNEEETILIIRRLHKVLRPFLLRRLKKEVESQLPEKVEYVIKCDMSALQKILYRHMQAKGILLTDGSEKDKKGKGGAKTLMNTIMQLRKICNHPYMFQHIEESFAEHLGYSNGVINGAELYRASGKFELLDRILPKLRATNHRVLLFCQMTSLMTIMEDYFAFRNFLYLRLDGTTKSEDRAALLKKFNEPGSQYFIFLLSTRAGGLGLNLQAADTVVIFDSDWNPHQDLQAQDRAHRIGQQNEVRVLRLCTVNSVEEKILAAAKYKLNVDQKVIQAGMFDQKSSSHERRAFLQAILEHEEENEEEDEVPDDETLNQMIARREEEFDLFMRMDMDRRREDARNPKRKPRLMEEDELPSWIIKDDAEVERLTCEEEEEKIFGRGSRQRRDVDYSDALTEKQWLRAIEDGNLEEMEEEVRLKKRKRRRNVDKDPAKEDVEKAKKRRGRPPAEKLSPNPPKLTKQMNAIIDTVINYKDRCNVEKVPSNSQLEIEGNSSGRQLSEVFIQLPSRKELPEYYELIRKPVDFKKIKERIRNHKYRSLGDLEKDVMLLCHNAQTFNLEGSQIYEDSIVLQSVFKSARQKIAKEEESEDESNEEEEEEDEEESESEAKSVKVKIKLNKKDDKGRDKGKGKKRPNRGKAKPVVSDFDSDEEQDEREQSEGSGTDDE

Row | SMILES | Dmax | DC50
1 | Cn1c(=O)n(C2CCC(=O)NC2=O)c2cccc(CCCOCCOCCOc3cccc(N4C[C@H]5C[C@@H]4CN5/C=C/C(=O)c4ccccc4O)n3)c21 (stereo partly drawn) [I-32] | – | > 1000 nM
2 | Cc1ncsc1-c1ccc(CNC(=O)[C@@H]2C[C@@H](O)CN2C(=O)[C@@H](NC(=O)COCCOCCOCCOCCOCCOCCNC(=O)CCCCCCCCOc2ccnc(N3C[C@H]4C[C@@H]3CN4/C=C/C(=O)c3ccccc3O)c2)C(C)(C)C)cc1 [I-221] | – | > 1000 nM
3 | Cn1c(=O)n(C2CCC(=O)NC2=O)c2cccc(CCCN3CCC(n4cc(-c5cc(-c6ccccc6O)nnc5N)cn4)CC3)c21 (stereo not drawn) [I-174, 3-[4-[3-[4-[4-[3-amino-6-(2-hydroxyphenyl)pyridazin-4-yl]pyrazol-1-yl]-1-piperidyl]propyl]-3-methyl-2-oxo-benzimidazol-1-yl]piperidine-2,6-dione] | > 90% | < 100 nM
4 | O=C1CCC(N2C(=O)c3cccc(OCCOCCc4cn(Cc5cccc(N6C[C@H]7C[C@@H]6CN7/C=C/C(=O)c6ccccc6O)n5)nn4)c3C2=O)C(=O)N1 (stereo partly drawn) [I-39] | – | > 1000 nM
5 | Cn1c(=O)n(C2CCC(=O)NC2=O)c2cccc(C#CCN3CCO[C@H](CNCc4ccc(N5CCN(c6cc(-c7ccccc7O)nnc6N)CC5)cc4)C3)c21 (stereo partly drawn) [I-118] | < 50% | > 1000 nM
6 | CC(c1ccc(C(=O)NCCOCCOCCOCCOCCNc2cccc3c2C(=O)N(C2CCC(=O)NC2=O)C3=O)cc1)n1cc(-c2cc(-c3ccccc3O)nnc2N)cn1 (stereo not drawn) [I-10] | – | > 1000 nM
7 | Cn1c(=O)n(C2CCC(=O)NC2=O)c2ccc(CNCCc3cn(Cc4cccc(N5C[C@H]6C[C@@H]5CN6/C=C/C(=O)c5ccccc5O)n4)nn3)cc21 (stereo partly drawn) [I-73] | < 50% | > 1000 nM
8 | Cn1c(=O)n(C2CCC(=O)NC2=O)c2ccc(CCCCCc3cn(Cc4cccc(N5C[C@H]6C[C@@H]5CN6/C=C/C(=O)c5ccccc5O)n4)nn3)cc21 (stereo partly drawn) [I-45] | < 50% | > 1000 nM
9 | O=C1CCC(N2C(=O)c3cccc(OCCc4cn(Cc5cccc(N6C[C@H]7C[C@@H]6CN7/C=C/C(=O)c6ccccc6O)n5)nn4)c3C2=O)C(=O)N1 (stereo partly drawn) [I-35] | – | > 1000 nM
10 | Cn1c(=O)n(C2CCC(=O)NC2=O)c2cccc(CCCCCCCCc3cn(Cc4cccc(N5C[C@H]6C[C@@H]5CN6/C=C/C(=O)c5ccccc5O)n4)nn3)c21 (stereo partly drawn) [I-53] | < 50% | > 1000 nM
11 | Cn1c(=O)n(C2CCC(=O)NC2=O)c2ccc(CNCCCc3cn(Cc4cccc(N5C[C@H]6C[C@@H]5CN6/C=C/C(=O)c5ccccc5O)n4)nn3)cc21 (stereo partly drawn) [I-74] | < 50% | > 1000 nM
12 | CN[C@@H](C)C(=O)N[C@H](C(=O)N1Cc2cc(OCCOCCOCCOCCOCCNC(=O)c3ccc(C(C)n4cc(-c5cc(-c6ccccc6O)nnc5N)cn4)cc3)ccc2C[C@H]1C(=O)N[C@@H]1CCCc2ccccc21)C(C)(C)C (stereo partly drawn) [I-207] | – | > 1000 nM
13 | Cc1ncsc1-c1ccc(CNC(=O)[C@@H]2C[C@@H](O)CN2C(=O)[C@@H](NC(=O)COCCOCCOCCOCCOCCOCCNC(=O)CCCCCCCCOc2ccc(N3C[C@H]4C[C@@H]3CN4/C=C/C(=O)c3ccccc3O)nc2)C(C)(C)C)cc1 [I-229] | – | > 1000 nM
14 | O=C(CCCCCCCCOc1ccnc(N2C[C@H]3C[C@@H]2CN3/C=C/C(=O)c2ccccc2O)c1)NCCOCCOCCNc1cccc2c1C(=O)N(C1CCC(=O)NC1=O)C2=O (stereo partly drawn) [I-23] | – | > 1000 nM
15 | O=C(CCCCCCCCOc1ccnc(N2C[C@H]3C[C@@H]2CN3/C=C/C(=O)c2ccccc2O)c1)NCCOCCOCCOCCOCCOCCNc1cccc2c1C(=O)N(C1CCC(=O)NC1=O)C2=O (stereo partly drawn) [I-19] | – | > 1000 nM
16 | CC(c1ccc(C(=O)NCCOCCOCCNc2cccc3c2C(=O)N(C2CCC(=O)NC2=O)C3=O)cc1)n1cc(-c2cc(-c3ccccc3O)nnc2N)cn1 (stereo not drawn) [I-15] | – | > 1000 nM
17 | O=C1CCC(N2C(=O)c3cccc(OCCOCCCc4cn(Cc5cccc(N6C[C@H]7C[C@@H]6CN7/C=C/C(=O)c6ccccc6O)n5)nn4)c3C2=O)C(=O)N1 (stereo partly drawn) [I-40] | – | > 1000 nM
18 | Cn1c(=O)n(C2CCC(=O)NC2=O)c2cccc(CCCCCCCN3CCC(n4cc(-c5cc(-c6ccccc6O)nnc5N)cn4)CC3)c21 (stereo not drawn) [I-176] | 70 to 90% | < 100 nM
19 | Cn1c(=O)n(C2CCC(=O)NC2=O)c2cccc(C#CCCCCc3cn(Cc4cccc(N5C[C@H]6C[C@@H]5CN6/C=C/C(=O)c5ccccc5O)n4)nn3)c21 (stereo partly drawn) [I-66] | < 50% | > 1000 nM
20 | Cn1c(=O)n(C2CCC(=O)NC2=O)c2cccc(C#CCCc3cn(Cc4cccc(N5C[C@H]6C[C@@H]5CN6/C=C/C(=O)c5ccccc5O)n4)nn3)c21 (stereo partly drawn) [I-64] | 70 to 90% | > 1000 nM
21 | Cn1c(=O)n(C2CCC(=O)NC2=O)c2cccc(CCCCCN3CCCC(n4cc(-c5cc(-c6ccccc6O)nnc5N)cn4)C3)c21 (stereo not drawn) [I-170] | 70 to 90% | < 100 nM
22 | Cn1c(=O)n(C2CCC(=O)NC2=O)c2cccc(CCCN3CCC(Cn4cc(-c5cc(-c6ccccc6O)nnc5N)cn4)CC3)c21 (stereo not drawn) [I-194] | > 90% | < 100 nM

The next lines start with the values.

Row | Dmax | DC50 | SMILES
23 | 70 to 90% | 100 to 500 nM | Cn1c(=O)n(C2CCC(=O)NC2=O)c2ccc(CCCCCCCOc3cccc(CN4CCN(c5cc(-c6ccccc6O)nnc5N)CC4)c3)cc21 (stereo not drawn) [I-104]
24 | < 50% | > 1000 nM | Cn1c(=O)n(C2CCC(=O)NC2=O)c2ccc(CCCCCOc3ccc(CN4CCN(c5cc(-c6ccccc6O)nnc5N)CC4)cc3)cc21 (stereo not drawn) [I-85]
25 | < 50% | > 1000 nM | Cn1c(=O)n(C2CCC(=O)NC2=O)c2ccc(CCCCCCCOc3ccc(CN4CCN(c5cc(-c6ccccc6O)nnc5N)CC4)cc3)cc21 (stereo not drawn) [I-87]
26 | < 50% | > 1000 nM | Cn1c(=O)n(C2CCC(=O)NC2=O)c2ccc(CCCCCOc3cccc(CN4CCN(c5cc(-c6ccccc6O)nnc5N)CC4)c3)cc21 (stereo not drawn) [I-102]
27 | < 50% | > 1000 nM | Cn1c(=O)n(C2CCC(=O)NC2=O)c2cccc(CCCCCCOc3ccc(CN4CCN(c5cc(-c6ccccc6O)nnc5N)CC4)cc3)c21 (stereo not drawn) [I-93]
28 | < 50% | > 1000 nM | CN(CCCCc1ccc2c(c1)n(C)c(=O)n2C1CCC(=O)NC1=O)Cc1ccc(N2CCN(c3cc(-c4ccccc4O)nnc3N)CC2)cc1 (stereo not drawn) [I-122]
29 | < 50% | > 1000 nM | Cn1c(=O)n(C2CCC(=O)NC2=O)c2ccc(CCCCCCCN3CCCC(n4cc(-c5cc(-c6ccccc6O)nnc5N)cn4)C3)cc21 (stereo not drawn) [I-180]
30 | 50 to 70% | > 1000 nM | Cn1c(=O)n(C2CCC(=O)NC2=O)c2ccc(CCCCCCCCCCOc3cccc(CN4CCN(c5cc(-c6ccccc6O)nnc5N)CC4)c3)cc21 (stereo not drawn) [I-144]
31 | < 50% | > 1000 nM | Cn1c(=O)n(C2CCC(=O)NC2=O)c2ccc(CCCOc3ccc(CN4CCN(c5cc(-c6ccccc6O)nnc5N)CC4)cc3)cc21 (stereo not drawn) [I-83, 3-(5-(3-(4-((4-(3-amino-6-(2-hydroxyphenyl)pyridazin-4-yl)piperazin-1-yl)methyl)phenoxy)propyl)-3-methyl-2-oxo-2,3-dihydro-1H-benzo[d]imidazol-1-yl)piperidine-2,6-dione]
32 | 70 to 90% | 100 to 500 nM | CN(CCCCOCCCCc1cccc2c1n(C)c(=O)n2C1CCC(=O)NC1=O)Cc1ccc(N2CCN(c3cc(-c4ccccc4O)nnc3N)CC2)cc1 (stereo not drawn) [I-119]
33 | 50 to 70% | 100 to 500 nM | Cn1c(=O)n(C2CCC(=O)NC2=O)c2cccc(CCCOCCCCN3CCN(Cc4ccc(-c5cc(-c6ccccc6O)nnc5N)cc4)CC3)c21 (stereo not drawn) [I-155]
34 | < 50% | > 1000 nM | Cn1c(=O)n(C2CCC(=O)NC2=O)c2ccc(CCCCCCOc3ccc(CN4CCN(c5cc(-c6ccccc6O)nnc5N)CC4)cc3)cc21 (stereo not drawn) [I-86]
35 | 50 to 70% | 501 to 1000 nM | Cn1c(=O)n(C2CCC(=O)NC2=O)c2ccc(CCCCCN3CCC[C@@H](Cn4cc(-c5cc(-c6ccccc6O)nnc5N)cn4)C3)cc21 (stereo partly drawn) [I-193, 3-[5-[5-[(3R)-3-[[4-[3-amino-6-(2-hydroxyphenyl)pyridazin-4-yl]pyrazol-1-yl]methyl]-1-piperidyl]pentyl]-3-methyl-2-oxo-benzimidazol-1-yl]piperidine-2,6-dione]
36 | 50 to 70% | 501 to 1000 nM | Nc1nnc(-c2ccccc2O)cc1N1CCN(c2ccc(CNCCOCCCc3cccc4c3oc(=O)n4C3CCC(=O)NC3=O)cc2)CC1 (stereo not drawn) [I-116]
37 | < 50% | > 1000 nM | Cn1c(=O)n(C2CCC(=O)NC2=O)c2ccc(CCCCCCCCCOc3cccc(CN4CCN(c5cc(-c6ccccc6O)nnc5N)CC4)c3)cc21 (stereo not drawn) [I-143]
